These results are taken from ChEMBL document CHEMBL2176941, “Kinetic profile of amyloid formation in the presence of an aromatic inhibitor by nuclear magnetic resonance” (ACS Med Chem Lett, 2012).

In experiment [1] the target is T1, Islet amyloid polypeptide (Homo sapiens) (UniProt P10997).
T1 sequence (whole entry): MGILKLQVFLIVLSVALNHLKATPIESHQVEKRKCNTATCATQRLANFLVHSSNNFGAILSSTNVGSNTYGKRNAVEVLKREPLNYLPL
The experiment is described as follows: Inhibition of IAPP assembly at 1:1 protein to compound ratio after 18 to 31 days by NMR analysis.

The target in experiment [2] is T1, Islet amyloid polypeptide (Homo sapiens). In words: Activity of IAPP assessed as maximal rate of self-assembly at 1:1 protein to compound ratio by NMR analysis (reference value: 12.2/day).
The target is the same in experiment [3]. In words: Inhibition of IAPP fibrillation at 1:1 protein to compound ratio after 44 days by transmission electron microscopy.
The target is the same in experiment [4]. In words: Inhibition of IAPP assembly assessed as nucleation period at 1:1 protein to compound ratio (reference value: 15.3 days).
The target is the same in experiment [5]. In words: Inhibition of IAPP assembly at 1:1 protein to compound ratio after 29 days by NMR analysis.
The nature of experiment [6]: Inhibition of IAPP (11 to 25) S20G mutant assembly at 1:1 protein to compound ratio after 1 to 8 days by TOCSY spectra analysis.
The target of experiment [7] is T1, Islet amyloid polypeptide (Homo sapiens). The experiment is described as follows: Inhibition of IAPP assembly assessed as prenucleation period at 1:1 protein to compound ratio by NMR analysis.
The target is the same in experiment [8]. In words: Inhibition of IAPP assembly at 1:1 protein to compound ratio after 1 to 5 days by circular dichroism spectra analysis. For orientation: Circular dichroism is the unequal absorption of left and right circularly polarised light.

Each structure is given as a SMILES string. Activity calls are given as the source filed them. The calls are words filed in the database; no cut-off is given here.

On to `COc1cc(/C=C/C(=O)CC(=O)/C=C/c2ccc(O)c(OC)c2)ccc1O`, for which the inhibition result in experiment [1], in experiment [6] and in experiment [8] was “Active” in each case. Also, the Activity in experiment [2] was 15.1 day⁻¹. The inhibition entry in experiment [3] and in experiment [5] was “inactive” in each case. The TIME in experiment [4] was determined as 290 h; in experiment [7], 408 h.
